Experimental data published in patent US12077503B2, “Substituted cyclic amides and their use as herbicides” (FMC CORPORATION, priority 2015, dated 2024).

Tests used:
Assay type in all cases: in vivo
[1] = tested on: ragweed (common ragweed, Ambrosia elatior); assay: Test A postemergence; details: for Ragweed plant response rating: 125 g ai/ha, postemergence, visual injury rating on 0 to 100 scale (0 no effect, 100 complete control), approx. 10 d; for Plant response rating, Ragweed: Postemergence, 500 g ai/ha, 0 to 100 scale where 0 is no effect and 100 is complete control
Outline: (§1)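 Preemergence soil spray on seeded pots or post-emergence spray on 1–2 leaf plants, in loam–sand blend. Greenhouse ~10 d. Visual rating 0–100 against untreated plants.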

[2] = tested on: pigweed (Amaranthus retroflexus); assay: Test A postemergence; details: for Pigweed plant response rating: 125 g ai/ha, postemergence, visual injury rating on 0 to 100 scale (0 no effect, 100 complete control), approx. 10 d; for Plant response rating, Pigweed: Postemergence, 500 g ai/ha, 0 to 100 scale where 0 is no effect and 100 is complete control
Outline: as §1

[3] = tested on: barnyardgrass (Echinochloa crus-galli); assay: Test A postemergence; details: for Barnyardgrass plant response rating: 125 g ai/ha, visual injury rating on 0 to 100 scale (0 no effect, 100 complete control), approx. 10 d; for Plant response rating, Barnyardgrass: 500 g ai/ha
Outline: as §1

[4] = tested on: Galium (catchweed bedstraw, Galium aparine); assay: Test A postemergence; details: for Galium plant response rating: 125 g ai/ha, postemergence, visual injury rating on 0 to 100 scale (0 no effect, 100 complete control), approx. 10 d; for Plant response rating, Galium: Postemergence, 500 g ai/ha, 0 to 100 scale where 0 is no effect and 100 is complete control
Outline: as §1

[5] = tested on: ryegrass, Italian (Italian ryegrass, Lolium multiflorum); assay: Test A postemergence; details: for Ryegrass, Italian plant response rating: 125 g ai/ha, postemergence, visual injury rating on 0 to 100 scale (0 no effect, 100 complete control), approx. 10 d; for Plant response rating, Ryegrass, Italian: Postemergence, 500 g ai/ha, 0 to 100 scale where 0 is no effect and 100 is complete control
Outline: as §1

[6] = tested on: wheat (Triticum aestivum); assay: Test A postemergence; details: for Wheat plant response rating: 125 g ai/ha, postemergence, visual injury rating on 0 to 100 scale (0 no effect, 100 complete control), approx. 10 d; for Plant response rating, Wheat: Postemergence, 500 g ai/ha, 0 to 100 scale where 0 is no effect and 100 is complete control
Outline: as §1

[7] = tested on: giant foxtail (Setaria faberii); assay: Test A postemergence; details: for Foxtail, Giant plant response rating: 125 g ai/ha, postemergence, visual injury rating on 0 to 100 scale (0 no effect, 100 complete control), approx. 10 d; for Plant response rating, Foxtail, Giant: Postemergence, 500 g ai/ha, 0 to 100 scale where 0 is no effect and 100 is complete control
Outline: as §1

corn (Zea mays) = assay: Test A postemergence; details: for Corn plant response rating: 125 g ai/ha, visual injury rating on 0 to 100 scale (0 no effect, 100 complete control), approx. 10 d; for Plant response rating, Corn: 500 g ai/ha
Outline: as §1

[8] = tested on: blackgrass (Alopecurus myosuroides); assay: Test A postemergence; details: for Blackgrass plant response rating: 125 g ai/ha, visual injury rating on 0 to 100 scale (0 no effect, 100 complete control), approx. 10 d; for Plant response rating, Blackgrass: 500 g ai/ha
Outline: as §1

Kochia (Kochia scoparia) [9] = assay: Test A postemergence; details: for Kochia plant response rating: 125 g ai/ha, postemergence, visual injury rating on 0 to 100 scale (0 no effect, 100 complete control), approx. 10 d; for Plant response rating, Kochia: Postemergence, 500 g ai/ha, 0 to 100 scale where 0 is no effect and 100 is complete control
Outline: as §1

[10] = tested on: ragweed (common ragweed, Ambrosia elatior); assay: Test A preemergence; details: Preemergence; for Plant response rating, Ragweed: 125 g ai/ha, visual injury after approximately 10 d, 0 to 100 scale where 0 is no effect and 100 is complete control; for Ragweed plant response rating (0 to 100 scale, 0 is no effect, 100 is complete control): 500 g ai/ha, visual injury approx. 10 d
Outline: as §1

[11] = tested on: pigweed (Amaranthus retroflexus); assay: Test A preemergence; details: Preemergence; for Plant response rating, Pigweed: 125 g ai/ha, visual injury after approximately 10 d, 0 to 100 scale where 0 is no effect and 100 is complete control; for Pigweed plant response rating (0 to 100 scale, 0 is no effect, 100 is complete control): 500 g ai/ha, visual injury approx. 10 d
[12] = tested on: barnyardgrass (Echinochloa crus-galli); assay: Test A preemergence; details: for Plant response rating, Barnyardgrass: 125 g ai/ha; for Barnyardgrass plant response rating (0 to 100 scale, 0 is no effect, 100 is complete control): 500 g ai/ha, visual injury approx. 10 d
Outline: as §1

[13] = tested on: ryegrass, Italian (Italian ryegrass, Lolium multiflorum); assay: Test A preemergence; details: Preemergence; for Plant response rating, Ryegrass, Italian: 125 g ai/ha, visual injury after approximately 10 d, 0 to 100 scale where 0 is no effect and 100 is complete control; for Ryegrass, Italian plant response rating (0 to 100 scale, 0 is no effect, 100 is complete control): 500 g ai/ha, visual injury approx. 10 d
Outline: as §1

[14] = tested on: giant foxtail (Setaria faberii); assay: Test A preemergence; details: for Plant response rating, Foxtail, Giant: 125 g ai/ha; for Foxtail, Giant plant response rating (0 to 100 scale, 0 is no effect, 100 is complete control): 500 g ai/ha, visual injury approx. 10 d
Outline: as §1

Kochia (Kochia scoparia) [15] = assay: Test A preemergence; details: for Plant response rating, Kochia: 125 g ai/ha; for Kochia plant response rating (0 to 100 scale, 0 is no effect, 100 is complete control): 500 g ai/ha, visual injury approx. 10 d
Outline: as §1

[16] = tested on: ducksalad (Heteranthera limosa); assay: Test B flooded paddy test; details: Flood, 250 g ai/ha; 0 to 100 scale where 0 is no effect and 100 is complete control; 13 to 15 d
Outline: (§2)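 Percent control, visually estimated after 13–15 d in the greenhouse on a 0–100 basis, compares treated pots with untreated ones; compound was put into paddy water 3 cm above the soil when plants had two leaves.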

[17] = tested on: barnyardgrass (Echinochloa crus-galli); assay: Test B flooded paddy test; details: Flood, 250 g ai/ha; 0 to 100 scale where 0 is no effect and 100 is complete control; 13 to 15 d
Outline: as §2

[18] = tested on: sedge, umbrella (small-flower umbrella sedge, Cyperus difformis); assay: Test B flooded paddy test; details: Flood, 250 g ai/ha; 0 to 100 scale where 0 is no effect and 100 is complete control; 13 to 15 d
Outline: as §2

rice (Oryra sativa) = assay: Test B flooded paddy test; details: Flood, 250 g ai/ha; 0 to 100 scale where 0 is no effect and 100 is complete control; 13 to 15 d
Outline: as §2

[19] = postemergence, 0 to 100 scale, 0 no effect, 100 complete control
[20] = preemergence, 0 to 100 scale (0 no effect, 100 complete control)
[21] = Postemergence, 0 to 100 scale where 0 is no effect and 100 is complete control
[22] = Preemergence, visual injury after approximately 10 d, 0 to 100 scale where 0 is no effect and 100 is complete control

Structure (SMILES)	Ragweed plant response rating [1]	Plant response rating, Ragweed [1]	Pigweed plant response rating [2]	Plant response rating, Pigweed [2]	Barnyardgrass plant response rating ([3]; postemergence)	Galium plant response rating [4]	Plant response rating, Galium [4]	Ryegrass, Italian plant response rating [5]	Plant response rating, Ryegrass, Italian [5]	Wheat plant response rating [6]	Plant response rating, Wheat [6]	Foxtail, Giant plant response rating [7]	Plant response rating, Foxtail, Giant [7]	Corn plant response rating (corn (Zea mays); postemergence)	Blackgrass plant response rating ([8]; postemergence)	Kochia plant response rating (Kochia (Kochia scoparia) [9])	Plant response rating, Kochia (Kochia (Kochia scoparia) [9])	Plant response rating, Ragweed [10]	Ragweed plant response rating (0 to 100 scale, 0 is no effect, 100 is complete control) [10]	Plant response rating, Pigweed [11]	also measured
C=C(C)CN1CC(c2cccc(C(F)(F)F)c2)C(C(=O)Nc2cccc(F)c2F)C1=O (stereo not drawn) [Compound 479]	0	0	0	0	0	0	0	0	0	0	40	0	60	0	0	0	0	0	0	0	Plant response rating, Barnyardgrass [3, 19]: 50; Plant response rating, Corn (corn (Zea mays); [19]): 0; Plant response rating, Blackgrass [8, 19]: 40; Pigweed plant response rating (0 to 100 scale, 0 is no effect, 100 is complete control) [11]: 0; Plant response rating, Barnyardgrass [12, 20]: 0; Barnyardgrass plant response rating (0 to 100 scale, 0 is no effect, 100 is complete control) ([12]; Preemergence): 30; Plant response rating, Ryegrass, Italian [13]: 0; Ryegrass, Italian plant response rating (0 to 100 scale, 0 is no effect, 100 is complete control) [13]: 0; Plant response rating, Foxtail, Giant [14, 20]: 80; Foxtail, Giant plant response rating (0 to 100 scale, 0 is no effect, 100 is complete control) ([14]; Preemergence): 90; Plant response rating, Kochia (Kochia (Kochia scoparia) [15]; [20]): 0; Kochia plant response rating (0 to 100 scale, 0 is no effect, 100 is complete control) (Kochia (Kochia scoparia) [15]; Preemergence): 0; Plant response rating, Ducksalad [16]: 20; Plant response rating, Barnyardgrass [17]: 0; Plant response rating, Sedge, Umbrella [18]: 0; Plant response rating, Rice (rice (Oryra sativa)): 0
C=C(C)CN1CC(c2cccc(C(F)(F)F)c2)C(C(=O)Nc2ccccc2F)C1=O (stereo not drawn) [Compound 481]	0	0	0	0	0	0	0	0	0	0	20	0	20	0	0	0	0	0	0	0	Plant response rating, Barnyardgrass [3, 21]: 20; Plant response rating, Corn (corn (Zea mays); [21]): 0; Plant response rating, Blackgrass [8, 21]: 0; Pigweed plant response rating (0 to 100 scale, 0 is no effect, 100 is complete control) [11]: 0; Plant response rating, Barnyardgrass [12, 22]: 0; Barnyardgrass plant response rating (0 to 100 scale, 0 is no effect, 100 is complete control) ([12]; Preemergence): 10; Plant response rating, Ryegrass, Italian [13]: 0; Ryegrass, Italian plant response rating (0 to 100 scale, 0 is no effect, 100 is complete control) [13]: 0; Plant response rating, Foxtail, Giant [14, 22]: 50; Foxtail, Giant plant response rating (0 to 100 scale, 0 is no effect, 100 is complete control) ([14]; Preemergence): 90; Plant response rating, Kochia (Kochia (Kochia scoparia) [15]; [22]): 0; Kochia plant response rating (0 to 100 scale, 0 is no effect, 100 is complete control) (Kochia (Kochia scoparia) [15]; Preemergence): 0; Plant response rating, Ducksalad [16]: 0; Plant response rating, Barnyardgrass [17]: 0; Plant response rating, Sedge, Umbrella [18]: 0; Plant response rating, Rice (rice (Oryra sativa)): 0
C=C(Cl)CN1CC(c2cccc(C(F)(F)F)c2)C(C(=O)Nc2ccccc2F)C1=O (stereo not drawn) [Compound 482]	0	0	0	0	0	0	0	0	0	0	0	0	20	0	0	0	0	0	0	0	Plant response rating, Barnyardgrass [3, 21]: 20; Plant response rating, Corn (corn (Zea mays); [21]): 0; Plant response rating, Blackgrass [8, 21]: 0; Pigweed plant response rating (0 to 100 scale, 0 is no effect, 100 is complete control) [11]: 0; Plant response rating, Barnyardgrass [12, 22]: 0; Barnyardgrass plant response rating (0 to 100 scale, 0 is no effect, 100 is complete control) ([12]; Preemergence): 10; Plant response rating, Ryegrass, Italian [13]: 0; Ryegrass, Italian plant response rating (0 to 100 scale, 0 is no effect, 100 is complete control) [13]: 0; Plant response rating, Foxtail, Giant [14, 22]: 70; Foxtail, Giant plant response rating (0 to 100 scale, 0 is no effect, 100 is complete control) ([14]; Preemergence): 80; Plant response rating, Kochia (Kochia (Kochia scoparia) [15]; [22]): 0; Kochia plant response rating (0 to 100 scale, 0 is no effect, 100 is complete control) (Kochia (Kochia scoparia) [15]; Preemergence): 0; Plant response rating, Ducksalad [16]: 0; Plant response rating, Barnyardgrass [17]: 0; Plant response rating, Sedge, Umbrella [18]: 0; Plant response rating, Rice (rice (Oryra sativa)): 0
